Non-standard residues stand in square brackets, D forms with d. Residues, ends and D or L forms follow the SMILES beside them. dTrp(5-F) = N[C@H](Cc1c[nH]c2ccc(F)cc12)C(=O)O; Orn = NCCC[C@H](N)C(=O)O; Abu = CC[C@H](N)C(=O)O
Experiments:
[1] = tested on: Rat pituitaries (growth hormone release); assay: In vitro inhibition of growth hormone release from cultured rat pituitary cells; type: cell-based; conditions: multiples or fractions of the effect of somatostatin (= 1), fiducial limits in parentheses, 4 hours incubation, radioimmunoassay
Protocol: The instant cyclic hexapeptide analogs of somatostatin are tested and compared with the effects of somatostatin in an in vitro test for the inhibition of growth hormone. The test is described as follows:
"Rat pituitaries were isolated according to the procedures of Vale and Grant "In vitro Pituitary Hormone Secretion Assay for Hypophysiotropic Substances" in Methods in Enzymology. Vol. XXXVII, eds. O'Malley, B. W. and Hardman, J. G. (Academic Press, Inc., New York) pp. 5-93 (1975).
After 4 days in culture, the cells were washed and incubated for 4 hours in Dulbecco-modified Eagle's medium in the presence or absence of graded doses of each analog or somatostatin. The medium was then collected for subsequent growth hormone determination by a double antibody radioimmunoassay for rat growth hormone."
The test results for some of the compounds of this invention are recorded below with the results for somatostatin listed first and given the arbitrary value of 1. The results for the instant compounds are given as multiples or fractions of the effect of somatostatin. The numbers in parentheses are the fiducial limits for the number preceding. The first of the instant compounds listed is the compound prepared in Example 1-5. The compound is written slightly different, however, to conform to the order of the amino acids found in somatostatin.

[2] = tested on: pentagastrin evoked gastric secretion in the chronic fistula dog; assay: Inhibition of pentagastrin evoked gastric secretion in the chronic fistula dog; type: in vivo; conditions: dose 0.8 μg/ml./min., infusion 0-60 min, pentagastrin 2.5 μg./kg./hour i.v., relative to placebo trial; for Gastric Secretion % Inhibition, Acid Concentration, 0-30 / Gastric Secretion % Inhibition, Vol., 0-30: 0-30 min; for Gastric Secretion % Inhibition, Acid Concentration, 30-60 / Gastric Secretion % Inhibition, Vol., 30-60: 30-60 min; for Gastric Secretion % Inhibition, Acid Concentration, 60-90 / Gastric Secretion % Inhibition, Vol., 60-90: 60-90 min; for Gastric Secretion % Inhibition, Acid Concentration, 90-120 / Gastric Secretion % Inhibition, Vol., 90-120: 90-120 min; for Gastric Secretion % Inhibition, Vol., 0-30 / Gastric Secretion % Inhibition, Vol., 30-60 / Gastric Secretion % Inhibition, Vol., 60-90 / Gastric Secretion % Inhibition, Vol., 90-120: volume
Protocol: The effects of the instant cyclichexapeptide analogs of somatostatin are determined by the following procedure.
Compounds were tested for their ability to inhibit pentagastrin evoked gastric secretion in the chronic fistula dog. Female beagle dogs with a chronic gastric fistula were given pentagastrin (2.5 μg./kg./hour, i.v. from -60 to 120 min.) and gastric outputs were collected via the fistula cannula. Samples were analyzed at 30 minute intervals for volume (ml.) and titratable acid (mEq/L) (Titration to pH 7 with 0.01 N NaOH); total acid output (mEq) was calculated as the production of output volume and acid concentration. Test compounds were infused at a constant rate from 0 to 60 minutes. Data have been expressed as percent change of total acid output relative to a placebo trial in the same animals.

C[C@@H](O)[C@@H]1NC(=O)[C@H](CCCCN)NC(=O)[C@@H](Cc2c[nH]c3ccccc23)NC(=O)[C@H](Cc2ccccc2)NC(=O)[C@@H]2CCCN2C(=O)[C@H](Cc2ccccc2)NC1=O [Cyclo(Pro-Phe-D-Trp-Lys-Thr-Phe)] (cyclo(PF[dW]KTF))
Growth Hormone Release Inhibition In Vitro [1]: 1.71 (1.31-2.32) | Gastric Secretion % Inhibition, Acid Concentration, 0-30 [2]: 18% | Gastric Secretion % Inhibition, Acid Concentration, 30-60 [2]: 47% | Gastric Secretion % Inhibition, Acid Concentration, 60-90 [2]: 54% | Gastric Secretion % Inhibition, Acid Concentration, 90-120 [2]: 68% | Gastric Secretion % Inhibition, Vol., 0-30 [2]: 88% | Gastric Secretion % Inhibition, Vol., 30-60 [2]: 98% | Gastric Secretion % Inhibition, Vol., 60-90 [2]: 95% | Gastric Secretion % Inhibition, Vol., 90-120 [2]: 86%

C[C@@H](O)[C@@H]1NC(=O)[C@H](CCCCN)NC(=O)[C@H](Cc2c[nH]c3ccccc23)NC(=O)[C@H](Cc2ccccc2)NC(=O)[C@@H]2CCCN2C(=O)[C@H](Cc2ccccc2)NC1=O [Cyclo(Pro-Phe-L-Trp-Lys-Thr-Phe)] (cyclo(FPFWKT))
Growth Hormone Release Inhibition In Vitro [1]: 1.59 (1.33-1.92)

C[C@@H]1NC(=O)[C@@H]2CCCN2C(=O)[C@H](Cc2ccccc2)NC(=O)[C@H]([C@@H](C)O)NC(=O)[C@H](CCCCN)NC(=O)[C@@H](Cc2c[nH]c3ccccc23)NC1=O [Cyclo(Pro-Ala-d-Trp-Lys-Thr-Phe)] (cyclo(A[dW]KTFP))
Growth Hormone Release Inhibition In Vitro [1]: 0.19 (0.1-0.38)

C[C@@H](O)[C@@H]1NC(=O)[C@H](CCCCN)NC(=O)[C@@H](Cc2c[nH]c3ccccc23)NC(=O)[C@H](Cc2ccc(O)cc2)NC(=O)[C@@H]2CCCN2C(=O)[C@H](Cc2ccccc2)NC1=O [Cyclo(Pro-Tyr-D-Trp-Lys-Thr-Phe)] (cyclo(FPY[dW]KT))
Growth Hormone Release Inhibition In Vitro [1]: 14.3 (8.3-33.0) | Gastric Secretion % Inhibition, Acid Concentration, 0-30 [2]: 30% | Gastric Secretion % Inhibition, Acid Concentration, 30-60 [2]: 49% | Gastric Secretion % Inhibition, Acid Concentration, 60-90 [2]: 52% | Gastric Secretion % Inhibition, Acid Concentration, 90-120 [2]: 27% | Gastric Secretion % Inhibition, Vol., 0-30 [2]: 67% | Gastric Secretion % Inhibition, Vol., 30-60 [2]: 87% | Gastric Secretion % Inhibition, Vol., 60-90 [2]: 87% | Gastric Secretion % Inhibition, Vol., 90-120 [2]: 64%

CC[C@@H]1NC(=O)[C@H](CCCCN)NC(=O)[C@@H](Cc2c[nH]c3ccccc23)NC(=O)[C@H](Cc2ccccc2)NC(=O)[C@@H]2CCCN2C(=O)[C@H](Cc2ccccc2)NC1=O [Cyclo(Pro-Phe-D-Trp-Lys-α-ABU-Phe)] (cyclo([Abu]FPF[dW]K))
Growth Hormone Release Inhibition In Vitro [1]: 0.82 (0.57-1.18)

CC(C)C[C@@H]1NC(=O)[C@@H]2CCCN2C(=O)[C@H](Cc2ccccc2)NC(=O)[C@H]([C@@H](C)O)NC(=O)[C@H](CCCCN)NC(=O)[C@@H](Cc2c[nH]c3ccccc23)NC1=O [Cyclo(Pro-Leu-D-Trp-Lys-Thr-Phe)] (cyclo(FPL[dW]KT))
Growth Hormone Release Inhibition In Vitro [1]: 0.29 (0.13-0.57)

C[C@@H](O)[C@@H]1NC(=O)[C@H](CCCN)NC(=O)[C@@H](Cc2c[nH]c3ccccc23)NC(=O)[C@H](Cc2ccccc2)NC(=O)[C@@H]2CCCN2C(=O)[C@H](Cc2ccccc2)NC1=O [Cyclo(Pro-Phe-D-Trp-Orn-Thr-Phe)] (cyclo(FPF[dW][Orn]T))
Growth Hormone Release Inhibition In Vitro [1]: 0.16(0.15-0.17)

NCCCC[C@@H]1NC(=O)[C@@H](Cc2c[nH]c3ccccc23)NC(=O)[C@H](Cc2ccccc2)NC(=O)[C@@H]2CCCN2C(=O)[C@H](Cc2ccccc2)NC(=O)[C@H](CO)NC1=O [Cyclo(Pro-Phe-D-Trp-Lys-ser-Phe)] (cyclo(FPF[dW]KS))
Growth Hormone Release Inhibition In Vitro [1]: 1.4 (1.1-1.7)

C[C@@H](O)[C@@H]1NC(=O)[C@H](CCCCN)NC(=O)[C@@H](Cc2c[nH]c3ccc(F)cc23)NC(=O)[C@H](Cc2ccccc2)NC(=O)[C@@H]2CCCN2C(=O)[C@H](Cc2ccccc2)NC1=O [Cyclo(Pro-Phe-D-5F-Trp-Lys-Thr-Phe)] (cyclo(FPF[dTrp(5-F)]KT))
Growth Hormone Release Inhibition In Vitro [1]: 2.4 (2.1-2.8)

CC(C)C[C@@H]1NC(=O)[C@H]([C@@H](C)O)NC(=O)[C@H](CCCCN)NC(=O)[C@@H](Cc2c[nH]c3ccccc23)NC(=O)[C@H](Cc2ccccc2)NC(=O)[C@@H]2CCCN2C1=O [Cyclo(Pro-Phe-D-Trp-Lys-Thr-Leu)] (cyclo(F[dW]KTLP))
Growth Hormone Release Inhibition In Vitro [1]: 0.16 (0.07-0.33)
